Entries after “also recorded” stand apart in the source; their conditions may differ. Where a SMILES comes first, the peptide text is derived from it. Where no end group is shown, it is not given here. [ ]: non-standard residue; d: D form. The star is where a group is joined. Palmitoyl = CCCCCCCCCCCCCCCC(=O)*
What was measured:
[1] = Fluorescence microscopy of ThT-stained fibrils (µm-sized aggregates); assay type: physicochemical; settings: 1 mg/mL stained with 50 µM ThT
Experimental: (§1) Transmission electron microscopy (TEM) measurements, Thioflavin (ThT), zeta-potential measurements for fibril characterization were prepared and conducted according to prior art procedures. […] Fibrils were defined as distinct, if no visible structures could be identified in fluorescence and brightfield microscopy.
Fluorescence microscopy: 1 µL Fibrils (1 mg mL^-1) were stained with 9 µL, 50 µM ThT. 10 µL of the stained fibrils (0.1 mg mL^-1) were placed on a microscopy glass. Fluorescence microscopy measurements were performed on a Leica DMi8 microscope with 10x air objective and equipped with a Leica MC170 HD camera with a filter setting λem = 527/30 nm upon excitation at λex = 480/40 nm) and processed with the Leica LASX software.

[2] = TEM of peptide assemblies (fibril formation / assembly); assay type: physicochemical; settings: for TEM morphology (in words): 1 mg/mL in PBS; for Assembly without hydrophob residue: corresponding peptide without hydrophobic moiety; for Assembly: peptide amphiphile
Experimental: The peptides were predissolved in DMSO to a concentration of 10 mg/mL. The fibril formation was induced by further diluting the solution to a final incubation concentration of 650 µM or 1 mg/mL in PBS as indicated in the text and incubated for 1 d (1 day) at rt (room temperature, 20 °C - 25 °C). Other concentrations as described herein were achieved by further dilution of preformed fibrils.
as §1

[3] = ATR-FT-IR determination of β-sheet content; assay type: physicochemical; settings: 1 mg/mL in PBS lyophilized; integral at 1630 cm^-1 relative to 1650-1700 cm^-1
Experimental: ATR-FT-IR: ATR-IR spectra acquisition and the calculation of β-sheet content were conducted according prior art procedures. Briefly, FT-IR spectra of solid samples were recorded after lyophilization of fibril solutions using a Bruker Tensor II spectrometer equipped with a diamond crystal as ATR element with a spectral resolution of 2 cm^-1, each spectrum was an average of 64 scans. The data was processed with Origin software. β-sheet amount was determined by calculating the integral of the peak at 1630 cm-1 (β-sheet) relative to the integral between 1650-1700 cm-1 (native structure) from the 2nd derivative of the FT-IR spectra.

HeLa cells = assay: Confocal laser scanning microscopy and degradation study with PA library and HeLa cells; assay type: cell-based; settings: for association with cellular membranes: 2 µg added to 20.000 HeLa cells, 30 min
Experimental: In general, the procedure for determine whether a PA is degraded or not, is conducted by confocal laser scanning microscopy of Proteostat stained PAs which are added to Hela cells (2 µg peptide added to 20.000 cells). Microscopy is conducted at day 0 (d0, after 30 min of incubation) and at day 3 (d3, after 72 h of incubation). The number of aggregates >10 µm^2 is counted via 3D object counter in imaged in an area of 1008 µm × 1008 µm.
A PA is considered to be degradable if the number and the size of aggregates are reduced after 3 days. The efficiency is determined by the percentual degradation (aggregate number at d3 / aggregate number at d0). For the number of aggregation three technical replicates were evaluated for each sample. A large deviation represents a nonhomogeneous spatial distribution of aggregates.
Confocal laser scanning microscopy and degradation study with PA library and HeLa cells: Confocal laser scanning microscopy studies were performed for the visualization of the cell-PA interaction. HeLa cells were seeded one day prior to conducting the assay (20,000/well) in an 8-well IBIDI slide. […] The nucleus of the HeLa cells was stained with Hoechst 33342 (NucBlue™, Thermo Fisher Scientific). The peptide solution mixture was transferred to the HeLa cells and incubated for 30 min at 37°C before washing three times with PBS. […] For the evaluation of aggregate degradation, the samples were further incubated at 37°C for 3 d and analyzed without any additional washing step. […] The number of aggregates were determined by counting aggregates larger than the threshold 10 µm^2 in an area of 1008 × 1008 µm and repeated in three technical triplicates.

HIV-1 = settings: for Infectivity enhancing N fold at 1.3 µM: relative to virus only; for enhancement of HIV-1 infection / transduction (in words): 6.5 µM, 1.3 µM, 0.26 µM;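 as to all read-outs here: TZM-bl reporter cells exposed to HIV-1 with peptide fibrils, infection read out as β-galactosidase luminescence, compared with virus alone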
Experimental: HIV-1 Infection Assay with TZM-bl cells: The effect of peptide fibrils on HIV-1 infection was studied via a luminescence assay for β-galactosidase, which was reported by TZM-bl cells upon infection. The HIV-1 infection assay was conducted in three technical replicates and repeated in three independent experiments unless stated otherwise.

Compound | fluorescent, µm-sized aggregates (ThT staining) [1] | TEM morphology (in words) [2] | β-sheet amount [3] | infectivity enhancement at 1.3 µM concentration compared to virus only infection (in words) (HIV-1) | enhancement of HIV-1 infection / transduction (in words) (HIV-1) | also measured
CCCCCCCCCCCCCCCC(=O)N[C@@H](C(=O)N[C@@H](C(=O)N[C@@H](C(=O)N[C@H](C)C(=O)N[C@H](C)C(=O)N[C@H](C)C(=O)N[C@H](CCCCN)C(=O)N[C@H](CCCCN)C(=O)N[C@H](CCCCN)C(N)=O)C(C)C)C(C)C)C(C)C [Pat14, C16-vvvaaakkk-NH2] (Palmitoyl-[dV][dV][dV][dA][dA][dA][dK][dK][dK]-NH2) | fluorescent, µm-sized aggregates | fibrillar morphologies | 49% | – | – | Assembly without hydrophob residue [2]: No; Assembly [2]: Yes; association with cellular membranes (HeLa cells): association with cellular membranes; degradability (in words) (HeLa cells; HeLa cells, 3 days): is not degraded; also recorded: cannot be degraded; also recorded: non-degradable PA; Degradability / % (rel. to initial particles > 10 µm^2) (HeLa cells; HeLa cells, 3 d relative to 30 min): -116%; aggregate number increases (HeLa cells; d3 relative to d0): 116%; enhances infectivity at 1.3 µM concentration, times more efficient compared to virus only infection (HIV-1): 7 times; Infectivity enhancing N fold at 1.3 µM (HIV-1): 7±1 N fold
CCCCCCCCCCCCCCCC(=O)N[C@@H](CCCNC(=N)N)C(=O)N[C@@H](CCCNC(=N)N)C(=O)N[C@@H](Cc1c[nH]c2ccccc12)C(=O)N[C@@H](CCC(N)=O)C(=O)N[C@@H](Cc1c[nH]c2ccccc12)C(=O)N[C@@H](CCCNC(=N)N)C(N)=O [Pat22, C16-RRWQWR-NH2] (Palmitoyl-RRWQWR-NH2) | – | fibrillar morphologies | 0% | does not enhance infectivity | no infectivity enhancement can be observed | Assembly without hydrophob residue [2]: No; Assembly [2]: Yes; association with cellular membranes (HeLa cells): no association with cellular membranes; Infectivity enhancing N fold at 1.3 µM (HIV-1): 0±0 N fold
CC(C)[C@@H](N)C(=O)N[C@@H](C(=O)N[C@@H](C(=O)N[C@H](C)C(=O)N[C@H](C)C(=O)N[C@H](C)C(=O)N[C@H](CCCCN)C(=O)N[C@H](CCCCN)C(=O)N[C@H](CCCCN)C(N)=O)C(C)C)C(C)C [Pat33, vvvaaakkk-NH2] (H-[dV][dV][dV][dA][dA][dA][dK][dK][dK]-NH2) | no fluorescent, µm-sized aggregates | no fibrillar morphologies but amorphous aggregates | 45% | cannot enhance infectivity | – | –
AGGRVK-NH2 [Pat37, AGGRVK-NH2] | no fluorescent, µm-sized aggregates | no fibrillar morphologies | 0% | cannot enhance infectivity | – | –
AKAVGK-NH2 [Pat50, AKAVGK-NH2] | no fluorescent, µm-sized aggregates | no fibrillar morphologies but amorphous aggregates | 33% | cannot enhance infectivity | – | –
ALAAGKK-NH2 [Pat39, ALAAGKK-NH2] | no fluorescent, µm-sized aggregates | no fibrillar morphologies | 0% | cannot enhance infectivity | – | –
AQAKAK-NH2 [Pat35, AQAKAK-NH2] | no fluorescent, µm-sized aggregates | no fibrillar morphologies but amorphous aggregates | 29% | cannot enhance infectivity | – | –
AVAKKK-NH2 [Pat40, AVAKKK-NH2] | no fluorescent, µm-sized aggregates | no fibrillar morphologies but amorphous aggregates | 29% | cannot enhance infectivity | – | –
GGGSSKKK-NH2 [Pat47] | no fluorescent, µm-sized aggregates | no fibrillar morphologies | 10% | – | not potent enhancers of HIV-1 infection | –
GKVGSK-NH2 [Pat49, GKVGSK-NH2] | no fluorescent, µm-sized aggregates | no fibrillar morphologies | 4% | – | not potent enhancers of HIV-1 infection | –
IIQKIK-NH2 [Pat34, IIQKIK-NH2] | no fluorescent, µm-sized aggregates | no fibrillar morphologies | 31% | – | not potent enhancers of HIV-1 infection | –
KGVPGVGK-NH2 [Pat44] | – | fibrillar morphologies | 22% | do not enhance infectivity | – | TEM morphology (in words) ([2]; listed as KGVPGVGK): unexpectedly forming fibrils by themselves
KIISFK-NH2 [Pat51, KIISFK-NH2] | no fluorescent, µm-sized aggregates | no fibrillar morphologies | 38% | – | not potent enhancers of HIV-1 infection | –
KYIHQNYTKALAGKLV-NH2 [Pat45] | no fluorescent, µm-sized aggregates | no fibrillar morphologies | 34% | – | not potent enhancers of HIV-1 infection | –
LLLKK-NH2 [Pat42, LLLKK-NH2] | no fluorescent, µm-sized aggregates | no fibrillar morphologies | 33% | cannot enhance infectivity | – | –
LNGGVKK-NH2 [Pat38, LNGGVKK-NH2] | no fluorescent, µm-sized aggregates | no fibrillar morphologies | 0% | – | not potent enhancers of HIV-1 infection | –
RRWQWR-NH2 [Pat41, RRWQWR-NH2] | – | amorphous aggregates | 0% | cannot enhance infectivity | – | association with cellular membranes (HeLa cells): no association with cellular membranes
VVAAHHH-NH2 [Pat43, VVAAHHH-NH2] | no fluorescent, µm-sized aggregates | no fibrillar morphologies | 0% | – | not potent enhancers of HIV-1 infection | –
WEALKK-NH2 [Pat36, WEALKK-NH2] | no fluorescent, µm-sized aggregates | no fibrillar morphologies but amorphous aggregates | 31% | cannot enhance infectivity | – | –
